The subject of this experiment is SJ-39 retinoblastoma cells. Put plainly: Efficacy in human orthotopic xenograft mouse model of retinoblastoma (event-free survival). The format is in vivo. How it is done: Preclinical testing was carried out in human orthotopic xenograft mice using the methods previously described ([10], [11]). SJ-39 retinoblastoma cells were injected into the vitreous of 30 immunocompromised mice (J:NU, The Jackson Laboratory (Bar Harbor, ME, USA)): 10 were untreated and 20 received subconjunctival injections of R406 in solution formulation (R406^oc) and systemic topotecan (TPT^syst) combination therapy administered over a 5-day course every third week as follows: 10 μL R406 per eye at a concentration of […] (8–9 nanomoles/eye) on day 1, and TPT^syst (0.7 mg/kg per dose, i.p.) on days 1 to 5 (see Fig. 1a). Mice were scheduled to receive six courses of therapy (18 weeks total). Before each course of therapy, mice were examined and intraocular pressure (IOP) was read as previously described ([10], [11]). If intraocular pressure was elevated above normal (IOP > 20) or eye rupture was observed, mice were taken off study and time to event was recorded. At the completion of the study event-free survival (EFS) was analyzed for the R406^oc/TPT^syst treated and untreated groups.
Since R406 is the SYK inhibitor farthest along in clinical development (Phase 3), and therefore the most likely compound to be tested clinically against retinoblastoma, we decided to focus upon its evaluation. In order to test the efficacy of R406 in vivo, we developed a solution formulation using FDA approved adjuvants for ophthalmic applications ([11]). The maximum concentration of R406 in solution was approximately 900 μM and R406 was chemically stable in formulation for 48 h at room temperature (Table S3 and Fig. S2). Next, we performed in vivo efficacy studies using the solution formulation of R406 in combination with systemic topotecan (standard for our preclinical evaluation of new retinoblastoma agents ([11]) following a clinically relevant dose and schedule as was previously done for nutlin-3a and BAY-61-3606 ([6], [11]). SJ-39 retinoblastoma cells were injected into the vitreous of 30 immunocompromised mice and animals were randomized into two treatment groups: 20 received subconjunctival injections of R406 in solution formulation (R406^oc) and systemic topotecan (TPT^syst) combination therapy administered over a 5-day course every third week (see Fig. 1a) and 10 were untreated. Animals were scheduled to receive 6 courses of treatment (18 weeks total), but no animal completed the entire 6 courses. All animals were taken off study by 63 days due to elevated intraocular pressure (IOP > 20) or eye rupture. Event free survival (EFS) was analyzed for the two groups (Fig. 1b). […]

Where only a bound is given, the exact number is not on record here.

In the case of `COc1cc(Nc2ncc(F)c(Nc3ccc4c(n3)NC(=O)C(C)(C)O4)n2)cc(OC)c1OC` [R406], the “proportion of event free survivals at 21 days” value (subconjunctival R406 solution 8–9 nmol/eye day 1 + systemic topotecan 0.7 mg/kg i.p. days 1-5, every third week, n=20, untreated 50%) stood at 90%. Moreover, where the note is “subconjunctival R406 solution + systemic topotecan”, the “time by which all animals were taken off study (IOP > 20 or eye rupture)” value is recorded as no more than 63 days. Moreover, for the setting “subconjunctival R406 solution + systemic topotecan, untreated 0%”, the “proportion of event free survivals at 42 days” value was 30%. Moreover, the “Median event free survival” value (subconjunctival R406 solution + systemic topotecan, untreated 32.5 days, log-rank p = 0.005) stood at 42 days.

Source of the values: PMC4213378, “Pharmacokinetics and Efficacy of the Spleen Tyrosine Kinase Inhibitor R406 after Ocular Delivery for Retinoblastoma” (Pharmaceutical Research, 2014).
